In patent publication US20190328822A1, “METHODS AND COMPOSITIONS FOR PREVENTING OR TREATING DOMINANT OPTIC ATROPHY” (STEALTH BIOTHERAPEUTICS CORP, priority 2014, published 2019):
Non-standard residues stand in square brackets, D forms with d. No end group written: not given here.

Tests used:
[1] = test system: plasma membrane of several mammalian cell types; conditions: energy-independent manner; cited from earlier work
[2] = test system: reactive oxygen species; conditions: cited from earlier work
[3] = cited from earlier work
[4] = test system: LHON patients; conditions: cited from earlier work
[5] = test system: LHON patients; conditions: 85 LHON patients, 900 mg/d for 24 weeks; cited from earlier work
[6] = molecular target: mu-opioid receptor (Homo sapiens, UniProt P35372); test: mu-opioid receptor agonist activity
mu-opioid receptor, sequence (P35372 whole entry, species assumed): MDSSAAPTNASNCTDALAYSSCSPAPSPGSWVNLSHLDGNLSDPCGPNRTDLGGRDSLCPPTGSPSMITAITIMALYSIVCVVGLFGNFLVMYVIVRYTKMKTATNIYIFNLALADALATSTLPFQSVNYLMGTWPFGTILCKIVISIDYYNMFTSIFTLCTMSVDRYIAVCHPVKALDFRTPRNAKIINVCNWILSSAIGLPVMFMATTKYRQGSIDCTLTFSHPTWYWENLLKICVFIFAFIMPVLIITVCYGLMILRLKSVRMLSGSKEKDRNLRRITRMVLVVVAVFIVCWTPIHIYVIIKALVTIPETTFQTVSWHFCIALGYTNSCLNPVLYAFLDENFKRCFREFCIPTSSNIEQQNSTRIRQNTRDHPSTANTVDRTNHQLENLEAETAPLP

[7] = test system: Human subjects at risk of having, suspected of having, or diagnosed as having DOA; test: Treatment and prevention of DOA in human subjects, ophthalmic solution (Example 2); type: in vivo; conditions: 1 drop of 1%, 3%, or 5% ophthalmic solution three times per day for 18 months
Method: Human subjects at risk of having (e.g., diagnosed with an OPA1 gene mutation, but who are not yet symptomatic, e.g., no visual impairment), suspected of having, or diagnosed as having DOA are administered a therapeutically effective amount of an aromatic-cationic peptide of the present technology, such as D-Arg-2′,6′-Dmt-Lys-Phe-NH2, alone or in conjunction with one or more additional therapeutic agents. Subjects will receive 1 drop of 1%, 3%, or 5% D-Arg-2′,6′-Dmt-Lys-Phe-NH2 ophthalmic solution in a randomly selected study eye three times per day for 18 months. The remaining eye of these subjects serves as the untreated internal control. The patients in the control group will be administered 1 drop of vehicle solution in one of their eyes (fellow control eye) three times per day over the course of the 18 month study. Subjects are assessed weekly for signs and symptoms associated with DOA according to one or more criteria described herein (e.g., one or more of visual loss, optic nerve atrophy, palor of the neuroretianl rim, presence of temporal pigmentary grey cresent, thinning of the fiber layer at the optic nerve rim, papillary excavation, scotoma, changes in color vision, etc.).

In the case of 2′,6′-Dmt-D-Arg-Phe-Lys-NH2, the “penetration of the plasma membrane” value [1] is given as “readily penetrates”.

For `Cc1c(C)c2c(c(C)c1O)CCC(C)(C(=O)O)O2` (centres unmarked) [Trolox], the “protective effects in vitro” value [2] is given as “modest protective effects”.

In the case of `COC1=C(OC)C(=O)C(C/C=C(\C)CC/C=C(\C)CC/C=C(\C)CC/C=C(\C)CC/C=C(\C)CC/C=C(\C)CC/C=C(\C)CC/C=C(\C)CC/C=C(\C)CCC=C(C)C)=C(C)C1=O` [coenzyme Q-10], the “delivery crossing lipid membranes to mitochondria” value ([3]; exogenous) is given as “poor delivery” and the “protective effects in vitro” value [2] is given as “modest protective effects”.

For `N[C@@H](CCC(=O)N[C@@H](CS)C(=O)NCC(=O)O)C(=O)O` [glutathione], the “protective effects in vitro” value [2] is given as “modest protective effects”.

In the case of `COC1=C(OC)C(=O)C(CCCCCCCCCCO)=C(C)C1=O` [idebenone], the delivery to mitochondria ([3]; compared with coenzyme Q10) is given as “higher delivery to mitochondria”, the “efficiency in crossing the blood-brain barrier” value ([3]; compared with coenzyme Q10) is given as “higher efficiency in crossing the blood-brain barrier” and the “diameter of the central scotomas after treatment” value ([4]; one 11778/ND4 LHON patient, from about 20 degrees) is given as “less than 5 degrees”. For the same molecule, the “recovery of visual acuity, color vision, and visual fields” value ([4]; seven LHON patients, about 450 mg/d) was “showed recovery of visual acuity, color vision, and visual fields” and the “final visual acuity vs placebo group” value [5] was “better final visual acuity than the placebo group”.

With “D-Arg-2′,6′-dimethyltyrosine-Lys-Phe-NH2 [D-Arg-2′,6′-Dmt-Lys-Phe-NH2]” the “mu-opioid receptor agonist activity” value [6] was “does not have mu-opioid receptor agonist activity” and the “onset and severity of the symptoms of DOA” value [7] was “prevent the onset of, delay the onset of, and/or reduce the severity of the symptoms of DOA”.

With F[dR]FK-NH2 the “mu-opioid receptor agonist activity” value [6] was “does not have mu-opioid receptor agonist activity”.

In the case of Tyr-D-Arg-Phe-Lys-NH2, the “mu-opioid receptor agonist activity” value [6] is reported as “has mu-opioid receptor agonist activity”.
